Data on 20 compounds can be found in patent US9783511B2, “Carbamate benzoxazine propionic acids and acid derivatives for modulation of RORgamma activity and the treatment of disease” (Merck Sharp & Dohme Corp., priority 2013, dated 2017).

In general, IC50 refers to the concentration needed to halve the response being measured.

Chain of human RORgammaT-Ligand Binding Domain (LBD) (P51449 269-508): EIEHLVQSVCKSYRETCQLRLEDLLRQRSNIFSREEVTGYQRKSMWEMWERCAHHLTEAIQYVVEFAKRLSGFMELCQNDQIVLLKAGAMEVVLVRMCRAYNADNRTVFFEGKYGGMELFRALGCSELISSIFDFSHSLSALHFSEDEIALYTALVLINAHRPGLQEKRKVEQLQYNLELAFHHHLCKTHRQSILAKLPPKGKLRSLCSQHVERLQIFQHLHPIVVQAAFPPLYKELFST

This test concerns the target human RORgammaT-Ligand Binding Domain (LBD) (Homo sapiens (Human), UniProt P51449). The experiment in a line: RORγ-Ligand Binding Domain TR-FRET Assay (co-activator peptide SRC1_2 recruitment). The following applies: HIS-tagged RORγ-LBD 3 nM, biotinylated SRC1 LXXLL peptide 100 nM, incubated overnight at 4° C., 665 nm/615 nm ratio. In kind it is biochemical. The text has this: Activation of RORgammaT activity can be measured using, e.g., a biochemical TR-FRET assay. In such an assay, interaction of cofactor-derived peptides with human RORgammaT-Ligand Binding Domain (LBD) can be measured.
To identify novel antagonists of RORgammaT, an assay was developed which employs the interaction of RORgammaT with its co-activator peptide SRC1_2. […] The RORγ-Ligand Binding Domain TR-FRET Assay was run according to the following protocol.
HIS-tagged RORγ-LBD protein was recombinantly expressed in Escherichia coli. The RORγ-LBD protein was purified by Ni^2+-affinity resin. Purified protein was then diluted in assay buffer (50 mM Tris pH 7.0, 50 mM KCl, 1 mM EDTA, 0.1 mM DTT, 100 μg/mL bovine serum albumin, delipidated) to obtain a RORγ-LBD final concentration of 3 nM.
Compounds to be tested were injected to the 384-well assay plate using Acoustic Droplet Ejection technology by Echo 550 liquid handler (Labcyte, CA).
In general terms: TR-FRET usually uses a lanthanide donor and a delayed reading to cut background.
`C[C@H](C[C@H]1CN(S(=O)(=O)c2ccnc(C3CC3)c2)c2cc(NC(=O)OC(C)(C)C(F)(F)F)ccc2O1)C(=O)O` (single isomer, unassigned) [Example 6DB, (R or S)-3-((S)-4-((2-cyclopropylpyridin-4-yl)sulfonyl)-6-((((1,1,1-trifluoro-2-methylpropan-2-yl)oxy)carbonyl)amino)-3,4-dihydro-2H-benzo[b][1,4]oxazin-2-yl)-2-methylpropanoic acid]: the IC50 was determined as 11.5 nM.

For `Cc1c(Cl)cc(F)cc1S(=O)(=O)N1C[C@H](CCC(=O)O)Oc2ccc(NC(=O)OC(C)(C)C(F)(F)F)cc21` [Example 6AK, (S)-3-(4-((3-chloro-5-fluoro-2-methylphenyl)sulfonyl)-6-((((1,1,1-trifluoro-2-methylpropan-2-yl)oxy)carbonyl)amino)-3,4-dihydro-2H-benzo[b][1,4]oxazin-2-yl)propanoic acid], the IC50 amounted to 11.1 nM.

With `COc1cc(S(=O)(=O)N2C[C@H]([C@H]3C[C@@H]3C(=O)O)Oc3ccc(NC(=O)OC(C)(C)C(F)(F)F)cc32)ccc1F` (single isomer, unassigned) [Example 22i, (1R,2S or 1R,2R or 1S,2S or 1S,2R)-2-((S)-4-((4-fluoro-3-methoxyphenyl)sulfonyl)-6-((((1,1,1-trifluoro-2-methylpropan-2-yl)oxy)carbonyl)amino)-3,4-dihydro-2H-benzo[b][1,4]oxazin-2-yl)cylcopropanecarboxylic acid], the IC50 turned out to be 22.4 nM.

`C[C@@H](C[C@H]1CN(S(=O)(=O)c2cccc(OC(F)F)c2)c2cc(NC(=O)OC(C)(C)C(F)(F)F)ccc2O1)C(=O)O` (single isomer, unassigned) [Example 6Co, (S or R)-3-((S)-4-((3-(difluoromethoxy)phenyl)sulfonyl)-6-((((1,1,1-trifluoro-2-methylpropan-2-yl)oxy)carbonyl)amino)-3,4-dihydro-2H-benzo[b][1,4]oxazin-2-yl)-2-methylpropanoic acid]: the IC50 is 8.38 nM.

For the compound `C[C@H](C[C@H]1CN(S(=O)(=O)c2cccc(C3CC3)c2)c2cc(NC(=O)OC(C)(C)C(F)(F)F)ccc2O1)C(=O)O` (single isomer, unassigned) [Example 6CW, (R or S)-3-((S)-4-((3-cyclopropylphenyl)sulfonyl)-6-((((1,1,1-trifluoro-2-methylpropan-2-yl)oxy)carbonyl)amino)-3,4-dihydro-2H-benzo[b][1,4]oxazin-2-yl)-2-methylpropanoic acid], the half-maximal inhibitory concentration (IC50) was determined as 10.2 nM.

Regarding `Cc1ccc(S(=O)(=O)N2C[C@H]([C@H]3C[C@@H]3C(=O)O)Oc3ccc(NC(=O)OC(C)(C)C(F)(F)F)cc32)cc1` (single isomer, unassigned) [Example 22G, (1S,2S or 1R,2R or 1S,2R or 1R,2S)-2-((S)-4-tosyl-6-((((1,1,1-trifluoro-2-methylpropan-2-yl)oxy)carbonyl)amino)-3,4-dihydro-2H-benzo[b][1,4]oxazin-2-yl)cyclopropanecarboxylic acid], the IC50 amounted to 34.2 nM.

For the compound `CC(C)(OC(=O)Nc1ccc2c(c1)N(S(=O)(=O)c1ccc(F)c(C(F)(F)F)c1)C[C@H]([C@H](CC(=O)O)C1CC1)O2)C(F)(F)F` (single isomer, unassigned) [Example 21C, (S or R)-3-cyclopropyl-3-((S)-4-((4-fluoro-3-(trifluoromethyl)phenyl)sulfonyl)-6-((((1,1,1-trifluoro-2-methylpropan-2-yl)oxy)carbonyl)amino)-3,4-dihydro-2H-benzo[b][1,4]oxazin-2-yl)propanoic acid], the IC50 turned out to be 30.4 nM.

As to `CCc1nc(S(=O)(=O)N2C[C@H](CC(C)(C)C(=O)O)Oc3ccc(NC(=O)OC(C)(C)C(F)(F)F)cc32)c(OC(C)C)s1` [Example 12S, 3-[(2S)-4-{[2-ethyl-5-(1-methylethoxy)-1,3-thiazol-4-yl]sulfonyl}-6-{[(2,2,2-trifluoro-1,1-dimethylethoxy)carbonyl]ami-no}-3,4-dihydro-2H-1,4-benzoxazin-2-yl]-2,2-dimethylpropanoic acid], the IC50 is 16.4 nM.

In the case of `CC(C)(OC(=O)Nc1ccc2c(c1)N(S(=O)(=O)c1cccc(S(F)(F)(F)(F)F)c1)C[C@H](CCC(=O)O)O2)C(F)(F)F` [Example 6BD, 3-[(2S)-4-{[3-(pentafluoro-lambda~6~- sulfanyl)phenyl]sulfonyl}-6-{[(2,2,2-trifluoro-1,1-dimethylethoxy)carbonyl]amino}-3,4-dihydro-2H-1,4-benzoxazin-2-yl]propanoic acid], the IC50 worked out at 14.8 nM.

Turning to `CCn1cc(S(=O)(=O)N2C[C@H](CCC(=O)O)Oc3ccc(NC(=O)OC(C)(C)C(F)(F)F)cc32)c(OCCO)n1` (stereo in doubt) [Example 6CA, 3-(4-{[1-ethyl-3-(2-hydroxyethoxy)-1H-pyrazol-4-yl]sulfonyl}-6-{[(2,2,2-trifluoro-1,1-dimethylethoxy)carbonyl]amino}-3,4-dihydro-2H-1,4-benzoxazin-2-yl)propanoic acid], the IC50 amounted to 11.4 nM.

With `Cc1nn(C(F)F)cc1S(=O)(=O)N1C[C@H](CCC(=O)O)Oc2ccc(NC(=O)OC(C)(C)C(F)(F)F)cc21` [Example 6AX, (S)-4-((2-(2-carboxyethyl)-6-((((1,1,1-trifluoro-2-methylpropan-2-yl)oxy)carbonyl)amino)-2H-benzo[b][1,4]oxazin-4(3H)-yl)sulfonyl)-1-(difluoromethyl)-3-methyl-1H-pyrazole], the IC50 worked out at 9.92 nM.

`CC(C)(OC(=O)Nc1ccc2c(c1)N(S(=O)(=O)c1ccc(F)c(F)c1)C[C@H](CCC(=O)O)O2)C(F)(F)F` [Example 6N, (S)-3-(4-((3,4-difluorophenyl)sulfonyl)-6-((((1,1,1-trifluoro-2-methylpropan-2-yl)oxy)carbonyl)amino)-3,4-dihydro-2H-benzo[b][1,4]oxazin-2-yl)propanoic acid]: the IC50 turned out to be 14 nM.

Turning to `COc1cc(S(=O)(=O)N2C[C@H](CCC(=O)O)Oc3c(F)cc(NC(=O)OC(C)(C)C(F)(F)F)cc32)ccc1F` [Example 29B, 3-[(2S)-8-fluoro-4-[(4-fluoro-3-methoxyphenyl)sulfonyl]-6-{[(2,2,2-trifluoro-1,1-dimethylethoxy)carbonyl]ami-no}-3,4-dihydro-2H-1,4-benzoxazin-2-yl]propanoic acid], the IC50 is 3.9 nM.

For the compound `CC(C)(OC(=O)Nc1cc(F)c2c(c1)N(S(=O)(=O)c1cccc(C(F)(F)F)c1)C[C@H](CCC(=O)O)O2)C(F)(F)F` [Example 29E, 3-[(2S)-8-fluoro-6-{[(2,2,2-trifluoro-1,1-dimethylethoxy)carbonyl]ami-no}-4-{[3-(trifluoromethyl)phenyl]sulfo-nyl}-3,4-dihydro-2H-1,4-benzoxazin-2-yl]propanoic acid], the IC50 stood at 10.2 nM.

On to `COc1cc(S(=O)(=O)N2C[C@H](CC(O)C(=O)O)Oc3ccc(NC(=O)OC(C)(C)C(F)(F)F)cc32)ccc1F` (mixture of isomers) [Example 18F, (R and S)-3-((S)-4-((4-fluoro-3-methoxyphenyl)sulfonyl)-6-((((1,1,1-trifluoro-2-methylpropan-2-yl)oxy)carbonyl)amino)-3,4-dihydro-2H-benzo[b][1,4]oxazin-2-yl)-2-hydroxypropanoic acid], for which the IC50 worked out at 9.39 nM.

In the case of `CC(C)(OC(=O)Nc1ccc2c(c1)N(S(=O)(=O)c1ccc(Cl)c(Cl)c1)C[C@H](CCC(=O)O)O2)C(F)(F)F` [Example 6AH, (S)-3-(4-((3,4-dichlorophenyl)sulfonyl)-6-((((1,1,1-trifluoro-2-methylpropan-2-yl)oxy)carbonyl)amino)-3,4-dihydro-2H-benzo[b][1,4]oxazin-2-yl)propanoic acid], the IC50 amounted to 8.84 nM.

Turning to `C[C@H](C[C@H]1CN(S(=O)(=O)c2cn(C(F)F)nc2Cl)c2cc(NC(=O)OC(C)(C)C(F)(F)F)ccc2O1)C(=O)O` (single isomer, unassigned) [Example 6DD, (R or S)-3-((S)-4-((3-chloro-1-(difluoromethyl)-1H-pyrazol-4-yl)sulfonyl)-6-((((1,1,1-trifluoro-2-methylpropan-2-yl)oxy)carbonyl)amino)-3,4-dihydro-2H-benzo[b][1,4]oxazin-2-yl)-2-methylpropanoic acid], the IC50 amounted to 23.6 nM.

Take `CCOc1sc(CC)nc1S(=O)(=O)N1C[C@H](CC(C)(C)C(=O)O)Oc2ccc(NC(=O)OC(C)(C)C(F)(F)F)cc21` [Example 12P, 3-[(2S)-4-[(5-ethoxy-2-ethyl-1,3-thiazol-4-yl)sulfonyl]-6-{[(2,2,2-trifluoro-1,1-dimethylethoxy)carbonyl]ami-no}-3,4-dihydro-2H-1,4-benzoxazin-2-yl]-2,2-dimethylpropanoic acid]: the IC50 was found to be 9.22 nM.

For `COc1cc(S(=O)(=O)N2C[C@H](C[C@@](C)(O)C(=O)O)Oc3ccc(NC(=O)OC(C)(C)C(F)(F)F)cc32)ccc1F` (single isomer, unassigned) [Example 18A, (R or S)-3-((S)-4-((4-fluoro-3-methoxyphenyl)sulfonyl)-6-((((1,1,1-trifluoro-2-methylpropan-2-yl)oxy)carbonyl)amino)-3,4-dihydro-2H-benzo[b][1,4]oxazin-2-yl)-2-hydroxy-2-methylpropanoic acid], the IC50 amounted to 12.9 nM.

As to `CCn1cc(S(=O)(=O)N2C[C@H](CCC(=O)O)Oc3c(F)cc(NC(=O)OC(C)(C)C(F)(F)F)cc32)c(Cl)n1` [Example 29C, 3-[(2S)-4-[(3-chloro-1-ethyl-1H-pyrazol-4-yl)sulfonyl]-8-fluoro-6-{[(2,2,2-trifluoro-1,1-dimethylethoxy)carbonyl]ami-no}-3,4-dihydro-2H-1,4-benzoxazin-2-yl]propanoic acid], the 50% inhibitory concentration (IC50) stood at 9.68 nM.
